Source: patent US20130123367A1, “VINYLOGOUS CHALCONE DERIVATIVES AND THEIR MEDICAL USE” (MEDIZINISCHE UNIVERSITAT WIEN, priority 2010, published 2013)
Like-named read-outs stand apart in the source and are kept apart here.

Assays:
[1] = tested on: colon cancer cell line SW480; experiment: Cell proliferation assay using crystal violet, SW480; assay type: cell-based; details: Homo sapiens, n = 3, 24 h incubation
Method: (§1) For quantification, cells are treated with crystal violet, a dye that stains proteins. After washing away of excess dye, the remaining crystal violet is dissolved in a sodium citrate solution. The solution is analyzed photometrically at 590 nm. The optical density of this solution depends on the concentration of crystal violet and therefore on the amount of cells. […] To reduce effects of evaporation, only the inner 60 wells of 96-well plates (coated with 0.1% gelatine solution for studies with HUVEC) were used for experiments.
(§2) Cells were seeded at a density of 5 000 cells per well in 100 μl growth medium (HUVEC) or 20 000 (HCT116), 15 000 (SW480 and 518A2) or 10 000 (HT29) cells per well in 200 μl growth medium in 55 wells per plate. 5 wells were filled with medium only. Additionally, a 96-well plate with cells in 12 wells and medium in 6 wells was prepared as T0-plate. The next day, additional 98 μl of growth medium were added in every well (only HUVEC).
(§3) Cells were treated with 2 μl of the working solution 24 h after seeding. Final compound concentrations in the well were 10 μM for the first round of screening. The final DMSO concentration was 0.5%. […] After finishing the addition of compounds, the T0-plate was stained with crystal violet for giving the cell density at time point zero. Before staining, the growth medium was poured away. Wells were filled with 50 μl crystal violet solution for 10 min. Then the staining solution was washed away with water. Since crystal violet is environmentally hazardous the waste was collected and disposed in an appropriate manner. After air drying of the plates the crystal violet on the cells was dissolved in 100 μl of sodium citrate solution, and the absorption was measured with a plate reader at 590 nm.
(§4) Mean values were corrected with the absorption of stained medium and the corrected absorption of T0 cells. Cell growth was calculated relative to DMSO control for data comparison. IC50 values (50% inhibition of cell growth) were determined with GraphPad Prism® (Version 4.03) using nonlinear regression (sigmoidal dose-response with variable slope).
(§5) Compounds showing an inhibition of proliferation of more than 50% at a concentration of 10 μM were defined as active, and their IC50-values were determined.

melanoma cell line 518A2 = experiment: Cell proliferation assay using crystal violet, 518A2; assay type: cell-based; details: for IC50: Homo sapiens, 518A2, crystal violet assay, n = 3, 48 h incubation
Method: as §1, §2, §3, §4, §5

[2] = tested on: SU-DHL-6 (Non Hodgkin's lymphoma); experiment: Cell viability assay using EZ4U viability kit, SU-DHL-6; assay type: cell-based; details: Homo sapiens
Method: (§6) For quantification, cells are treated with a tetrazolium salt as indicator of cell viability. […] Then, the solution is analyzed photometrically at 450 nm with 620 nm as reference.
(§7) The final DMSO concentration was 0.5%. […] Then, wells were filled with 20 μl substrate solution for 2 to 4 hours and analyzed.
(§8) Cell viability was calculated relative to DMSO control for data comparison. IC50 values (50% inhibition of cell growth) were determined with GraphPad Prism® (Version 4.03) using nonlinear regression (sigmoidal dose-response with variable slope).

[3] = tested on: Jurkat (T-cell acute lymphoblastic leukemia); experiment: Cell viability assay using EZ4U viability kit, Jurkat; assay type: cell-based; details: Homo sapiens
Method: as §6, §7, §8

[4] = tested on: K562 (Chronic myeloid leukemia); experiment: Cell viability assay using EZ4U viability kit, K562; assay type: cell-based; details: Homo sapiens
Method: as §6, §7, §8

hematological cell lines = experiment: Viability assay in cell lines, summary of Table 4; assay type: cell-based; details: after 48 hours in most of the cell lines, read-out: IC50-values obtained by the viability assay in cell lines
Method: as §6, §7, §8

[5] = tested on: SU-DHL-6 or SU-DHL-9 NHL cells; experiment: Annexin V-FITC / propidium iodide staining, early apoptosis in NHL cells; assay type: cell-based; details: 48 h incubation; FIG. 2
Method: FIG. 2. Changes in early apoptosis in SU-DHL-6 or SU-DHL-9 NHL cells after 48 h incubation with compounds 1 and 22, respectively. Effect of compound 1 in a) SU-DHL-6 and b) SU-DHL-9, and effect of compound 22 in c) SU-DHL-6 and d) SU-DHL-9. Apoptosis was detected using propidium iodide/Annexin V FACS staining (Bender MedSystems). Viability was detected using the EZ4U viability kit (Biomedica).
Annexin V binds to phosphatidylserine which is exposed at the cell surface during execution of apoptosis. […] The final DMSO concentration was 0.5%. All treatments and controls were performed twice. […] Then, growth medium was removed by centrifugation, the supernatant discarded and 200 μl of an Annexin V solution were added. After 10 minutes in the dark, cells were washed once with Annexin buffer and the solution removed by centrifugation. The supernatant was discarded again and cells were suspended in 200 μl of a propidium iodide solution. Cells were measured by flow cytometry with a total of 10 000 events. Data were analyzed with CellQuest Pro™.

[6] = tested on: primary chronic lymphocytic leukemia (CLL) cells; experiment: In vitro drug test in primary CLL cells (CellTiter-Blue viability); assay type: cell-based; details: 48 h incubation; mean of 15 patients; FIG. 6
Excerpt: FIG. 6: […] Data points represent the arithmetic mean of 15 patients calculated in relation to the control. […] The final DMSO concentration was 0.5%.

[7] = tested on: healthy peripheral blood mononuclear cells (PBMC); experiment: Effect on healthy PBMC (CellTiter-Blue viability)
Method: FIG. 8: Effect of compounds 1 and 22 according to the invention as well as the control drugs fludarabine and cyclophosphamide on the viability of healthy peripheral blood mononuclear cells (PBMC) in suspension culture after 48 h incubation. Data points represent one individual calculated in relation to the control. Viability was measured using the CellTiter Blue assay (Promega, Madison, Wis., USA), and cells incubated in solvent only were used as control.
For quantification, cells were treated with resazurin (7-hydroxy-3H-phenoxazin-3-one 10-oxide) as indicator of cell viability. The method is based on the finding that living cells are able to reduce the non-fluorescent blue dye into the pink colored and highly red fluorescent resorufine. After adding the substrate the cells are incubated for 2 to 4 hours. Then, the solution is analyzed at 560 nm Ex/590 nm Em on a fluorometer. Appropriate cell density for seeding and duration of treatment with the substrate were determined in preliminary experiments.
First, cells were seeded in 96 well plates and then growth medium was added to each well to get a final volume of 80 μl. Compounds to be tested were diluted with medium from a 10 mM stock solution in DMSO to get different concentrations, and 20 μl of these solutions were added to the wells. The final DMSO concentration was 0.5%. All treatments and controls were performed in at least triplicates. Cells were incubated at 37° C. and 5% CO2 for 48 h. Then, 20 μl substrate solution was added to the wells, plates were incubated for 3 hours and analyzed.
The impact of the compounds according to the invention on healthy cells was assessed using peripheral blood mononuclear cells (PBMC). Cell viability was tested using the CellTiter-Blue Cell Viability Assay (Promega, Madison, Wis., USA) as described in Example 7.

[8] = 24 h incubation, read-out: IC50 (nM) SU-DHL-6 24 h
[9] = 48 h incubation, read-out: IC50 (nM) SU-DHL-6 48 h
[10] = 24 h incubation, read-out: IC50 (nM) Jurkat 24 h (converted)
[11] = 48 h incubation, read-out: IC50 (nM) Jurkat 48 h (converted)
[12] = 24 h incubation, read-out: IC50 (nM) K562 24 h (converted)
[13] = 48 h incubation, read-out: IC50 (nM) K562 48 h (converted)

## CCOc1ccccc1C(=O)/C=C/c1ccc2ccccc2c1 [Compound 22, 3-(2-Naphthyl)-1-(2′-ethoxyphenyl)-2-propene-1-one]
[1]
  IC50: 30 nM
Melanoma cell line 518A2
  IC50: 40 nM
Melanoma cell line 518A2; melanoma cell line 518A2, ratio of IC50 values
  potency relative to cisplatin: about 250 times
[2]; [8]
  IC50: 10 nM
[2]; [9]
  IC50: 40 nM
[3]; [10]
  IC50: 7840 nM
[3]; [11]
  IC50: 7210 nM
[4]; [12]
  IC50: 17700 nM
[4]; [13]
  IC50: 13700 nM
Hematological cell lines
  IC50: ~0.01 µM
[5]
  early apoptosis (propidium iodide/Annexin V FACS staining): induce early apoptosis
[6]
  viability of primary CLL cells in suspension culture: effective in CLL cells at lower concentrations than the standard therapeutic drugs fludarabine and cyclophosphamide
[7]
  viability of healthy PBMC in suspension culture (toxicity): less toxic

## COc1ccccc1/C=C/C=C/C(=O)c1cc(OC)c(OC)c(OC)c1 [Compound 1, 5-(2-Methoxyphenyl)-1-(3′,4′,5′-trimethoxyphenyl)-2,4-pentadiene-1-one]
[1]
  IC50: 520 nM
Melanoma cell line 518A2
  IC50: 150 nM
[2]; [8]
  IC50: 180 nM
[2]; [9]
  IC50: 20 nM
[3]; [10]
  IC50: 1110 nM
[3]; [11]
  IC50: 630 nM
[4]; [12]
  IC50: 20900 nM
[4]; [13]
  IC50: 50 nM
Hematological cell lines
  IC50: ~0.01 µM
[5]
  early apoptosis (propidium iodide/Annexin V FACS staining): induce early apoptosis
[6]
  viability of primary CLL cells in suspension culture: effective in CLL cells at lower concentrations than the standard therapeutic drugs fludarabine and cyclophosphamide
[7]
  viability of healthy PBMC in suspension culture (toxicity): less toxic
